This note sets out measurements from patent publication EP0613481B1, “TRIAMINO PLATINUM COMPLEXES AND A METHOD FOR THE SYNTHESIS THEREOF” (priority 1991, dated 1993).

Data set [1] relates to L 1210 murine leukemia cell line. Kind of data set: 24 hours-thymidine uptake cytotoxicity, continuous exposition to the drugs. It counts as cell-based. Particulars: for IC50: L1210, Mean ±SD, read-out: IC50 (Concentration producing 50% of inhibition).
A further data set relates to P388 leukemic cells. Kind of data set: In vivo compared antitumor activity assay in mice infected with P388 leukemic cells. The conditions noted are these: single administration.
For another data set, the system named is L 1210/cis-DDP cell line. Particulars: for IC50: read-out: IC50 (Concentration producing 50% of inhibition), L1210/cis-DDP, Mean ±SD.
Data set [2] has as its system P388 murine leukemic cells. Kind of data set: In vitro cytotoxic activity. It counts as cell-based. Particulars: at least comparable with cis-DDP.
Data set [3] has as its system K562 human erhytroleukemic cells. Kind of data set: In vitro cytotoxic activity. The format is cell-based. The conditions noted are these: at least comparable with cis-DDP.
The subject of another data set is Jurkat human cells. Kind of data set: In vitro cytotoxic activity. It counts as cell-based. The conditions noted are these: at least comparable with cis-DDP.
The conditions of data set [4]: mouse, in vivo, ip.
A short description of data set [5]: Acute intraperitoneal toxicity and renal toxicity in mice. The conditions noted are these: acute intraperitoneal administration, dissolved into 0.9% aqueous NaCl.

Turning to `N.N.[Cl][Pt][Cl]` [cis-DDP, cis-platinum, reference compound], the results for the IC50 (in data set [1]; in the data set with L 1210/cis-DDP cell line) were 840 ± 90 nM and 9600 ± 2800 nM, respectively. Besides, the “ILS (highest increase in life span)” value in the data set on P388 leukemic cells (8 mg/kg) stood at 75%. The “percent body weight variation” value with P388 leukemic cells (decrease, 8 mg/kg (maximum tolerated dose)) was found to be 10.6%.
With “cis-diamino-chloro-4-[diethylammoniumethoxycarbonylphenyl]amino-platinum (II)^+ bis-chloride monohydrate [cis-DPR]”, the IC50 in data set [1] amounted to 510 ± 80 nM; in the data set with L 1210/cis-DDP cell line it was 970 ± 170 nM. Further, the “activity relative to cis-DDP (times more active)” value in data set [1] (parental L 1210 cell line) is given as “about 1.6 times”. For the same molecule, in the data set with P388 leukemic cells (21 mg/kg), the “ILS (highest increase in life span)” value is given as 75%. The “percent body weight variation” value in the data set on P388 leukemic cells (increase, 21 mg/kg) is 4.5%. Further, the cytotoxic activity entry (in data set [2]; in data set [3]; with Jurkat human cells) was “significant cytotoxyc activity” each time. The “activity relative to cis-DDP (times greater, from IC50s)” value in the data set on L 1210/cis-DDP cell line (L 1210/cis-DDP cell line) is listed as “about 10 times”. Also, the “kidney damages (plasma BUN increase, examination of renal tubules)” value in data set [4] is “no evaluable kidney damages”. In data set [5], the LD50 is on record as 39.3 mg/kg.
